# Results as given in patent US10131652B2, “Pyrimidinyloxy benzene derivatives as herbicides” (E. I. DU PONT DE NEMOURS AND COMPANY, priority 2014, dated 2018).
# Read-outs that look alike come from different tables or passages of the source.
# Columns and labels:
# Type in all cases: in vivo
# [1] = test system: waterhemp_RES2 (ALS & HPPD resistant common waterhemp, Amaranthus rudis); assay: Test F postemergence plant response; conditions: scale 0 to 100
# Protocol: (§1) At the same time, plants from these crop and weed species and also waterhemp_RES1, (ALS & Triazine resistant common waterhemp, Amaranthus rudis), and waterhemp_RES2, (ALS & HPPD resistant common waterhemp, Amaranthus rudis) were treated with postemergence applications of test chemicals formulated in the same manner. Plants ranged in height from 2 to 18 cm for postemergence treatments (1- to 4-leaf stage).
# (§2) Treated plants and controls were maintained in a greenhouse for 14 to 21 days, after which time all species were compared to controls and visually evaluated. Plant response ratings, summarized in Table F, are based on a scale of 0 to 100 where 0 is no effect and 100 is complete control. A dash (-) response means no test result.
# [2] = test system: waterhemp_RES1 (ALS & Triazine resistant common waterhemp, Amaranthus rudis); assay: Test F postemergence plant response; conditions: scale 0 to 100
# Protocol: as §1, §2
# [3] = test system: wild poinsettia (Euphorbia heterophylla); assay: Test F pre-/postemergence plant response; conditions: scale 0 to 100; for pest or weed control at 16 g/ha / pest or weed control at 31 g/ha / pest or weed control at 62 g/ha / pest or weed control at 125 g/ha: Euphorbia heterophylla, read-out: Plant response rating, Poinsettia, Wild
# From the text: (§3) Seeds of plant species selected from corn (Zea mays), soybean (Glycine max), velvetleaf (Abutilon theophrasti), lambsquarters (Chenopodium album), wild poinsettia (Euphorbia heterophylla), palmer pigweed (Amaranthus palmeri), waterhemp (common waterhemp, Amaranthus rudis), surinam grass (Brachiaria decumbens), large (Lg) crabgrass (Digitaria sanguinalis), Brazilian crabgrass (Digitaria horizontalis), fall panicum (Panicum dichotomiflorum), giant foxtail (Setaria faberii), green foxtail (Setaria viridis), goosegrass (Eleusine indica), johnsongrass (Sorghum halepense), ragweed (common ragweed, Ambrosia elatior), barnyardgrass (Echinochloa crus-galli), sandbur (southern sandbur, Cenchrus echinatus), arrowleaf sida (Sida rhombifolia), Italian ryegrass (Lolium multiflorum), dayflower (Virginia (VA) dayflower, Commelina virginica), field bindweed (Convolvulus arvensis), cocklebur (common cocklebur, Xanthium strumarium), momingglory (Ipomoea coccinea), nightshade (eastern black nightshade, Solanum ptycanthum), kochia (Kochia scoparia), yellow nutsedge (Cyperus esculentus), and hairy beggarticks (Bidens pilosa), were planted into a silt loam soil and treated preemergence with test chemicals formulated in a non-phytotoxic solvent mixture which included a surfactant.
# as §1, §2
# [4] = test system: Brazilian crabgrass (Digitaria horizontalis); assay: Test F pre-/postemergence plant response; conditions: scale 0 to 100; for pest or weed control at 16 g/ha / pest or weed control at 31 g/ha / pest or weed control at 62 g/ha / pest or weed control at 125 g/ha: Digitaria horizontalis, read-out: Plant response rating, Crabgrass, Brazil
# From the text: as §3, §1, §2
# [5] = test system: ragweed (common ragweed, Ambrosia elatior); assay: Test B pre-/postemergence plant response
# Summary of the method: (§4)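 Visual injury rating, 0 (no effect) to 100 (complete control), vs untreated controls after ~10 d greenhouse. Pre: directed soil spray after planting in loam/sand. Post: plants 2–10 cm, 1–2 leaf stage. Compound in non-phytotoxic solvent plus surfactant.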
# [6] = test system: kochia (Kochia scoparia); assay: Test B pre-/postemergence plant response
# Summary of the method: as §4
# [7] = test system: Italian ryegrass (Lolium multiflorum); assay: Test B pre-/postemergence plant response
# Summary of the method: as §4
# [8] = test system: galium (catchweed bedstraw, Galium aparine); assay: Test B postemergence plant response
# Summary of the method: (§5)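 Plants grown in pots of loam soil–sand blend were sprayed postemergence with formulated test chemicals at 2 to 10 cm height, one- to two-leaf stage. After about 10 days in a greenhouse, injury was visually rated against untreated controls on a 0 to 100 scale (0 no effect, 100 complete control).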
# [9] = test system: blackgrass (Alopecurus myosuroides); assay: Test B postemergence plant response
# Summary of the method: as §5
# [10] = 125 g ai/ha, postemergence, 0 to 100 scale, 0 no effect, 100 complete control
# [11] = Postemergence, 500 g ai/ha, 0 to 100 scale (0 no effect, 100 complete control)
# [12] = Preemergence, 125 g ai/ha, 0 to 100 scale where 0 is no effect and 100 is complete control
# [13] = Preemergence, 500 g ai/ha, 0 to 100 scale where 0 is no effect and 100 is complete control
# [14] = post-emergence, 16 g ai/ha Postemergence
# [15] = post-emergence, 31 g ai/ha Postemergence
# [16] = post-emergence, 62 g ai/ha Postemergence
# [17] = post-emergence, 125 g ai/ha Postemergence
# [18] = pre-emergence, 16 g ai/ha Preemergence
# [19] = pre-emergence, 31 g ai/ha Preemergence
# [20] = pre-emergence, 125 g ai/ha Preemergence
# [21] = 31 g ai/ha, Preemergence, 0 to 100 scale where 0 is no effect and 100 is complete control
# [22] = Postemergence, 31 g ai/ha, 0 to 100 scale (0 no effect, 100 complete control)
# [23] = Preemergence, 125 g ai/ha, 0 to 100 scale (0 no effect, 100 complete control)
structure (smiles),measurement,setting,value
Cc1cc(-c2ccccc2Oc2ncc(Cl)cn2)on1 [Compound 58],"Plant response rating, Waterhemp_RES2",[1]; 8 g ai/ha Postemergence,65
same,"Plant response rating, Waterhemp_RES2",[1]; 16 g ai/ha Postemergence,60
same,"Plant response rating, Waterhemp_RES2",[1]; 31 g ai/ha Postemergence,70
same,"Plant response rating, Waterhemp_RES2",[1]; 62 g ai/ha Postemergence,75
same,"Plant response rating, Waterhemp_RES2",[1]; 125 g ai/ha Postemergence,80
same,"Plant response rating, Waterhemp_RES1",[2]; 8 g ai/ha Postemergence,10
same,"Plant response rating, Waterhemp_RES1",[2]; 16 g ai/ha Postemergence,20
same,"Plant response rating, Waterhemp_RES1",[2]; 31 g ai/ha Postemergence,65
same,"Plant response rating, Waterhemp_RES1",[2]; 62 g ai/ha Postemergence,70
same,"Plant response rating, Waterhemp_RES1",[2]; 125 g ai/ha Postemergence,75
same,"Plant response rating, Poinsettia, Wild",[3]; 8 g ai/ha Postemergence,30
same,"Plant response rating, Poinsettia, Wild",[3]; 8 g ai/ha Preemergence,0
same,"Plant response rating, Poinsettia, Wild",[3]; 16 g ai/ha Postemergence,30
same,"Plant response rating, Poinsettia, Wild",[3]; 16 g ai/ha Preemergence,0
same,"Plant response rating, Poinsettia, Wild",[3]; 31 g ai/ha Postemergence,60
same,"Plant response rating, Poinsettia, Wild",[3]; 31 g ai/ha Preemergence,20
same,"Plant response rating, Poinsettia, Wild",[3]; 62 g ai/ha Postemergence,50
same,"Plant response rating, Poinsettia, Wild",[3]; 125 g ai/ha Postemergence,60
same,"Plant response rating, Poinsettia, Wild",[3]; 125 g ai/ha Preemergence,20
same,"Plant response rating, Poinsettia, Wild",[3]; Preemergence,20
same,"Plant response rating, Crabgrass, Brazil",[4]; 8 g ai/ha Postemergence,5
same,"Plant response rating, Crabgrass, Brazil",[4]; 8 g ai/ha Preemergence,0
same,"Plant response rating, Crabgrass, Brazil",[4]; 16 g ai/ha Postemergence,5
same,"Plant response rating, Crabgrass, Brazil",[4]; 16 g ai/ha Preemergence,0
same,"Plant response rating, Crabgrass, Brazil",[4]; 31 g ai/ha Postemergence,5
same,"Plant response rating, Crabgrass, Brazil",[4]; 31 g ai/ha Preemergence,0
same,"Plant response rating, Crabgrass, Brazil",[4]; 62 g ai/ha Postemergence,10
same,"Plant response rating, Crabgrass, Brazil",[4]; 62 g ai/ha Preemergence,35
same,"Plant response rating, Crabgrass, Brazil",[4]; 125 g ai/ha Postemergence,10
same,"Plant response rating, Crabgrass, Brazil",[4]; 125 g ai/ha Preemergence,75
same,"Plant response rating, Ragweed",[5]; [10],100
same,"Plant response rating, Ragweed",[5]; [11],100
same,"Plant response rating, Ragweed",[5]; [12],70
same,"Plant response rating, Ragweed",[5]; [13],80
same,"Plant response rating, Kochia",[6]; [10],100
same,"Plant response rating, Kochia",[6]; [11],100
same,"Plant response rating, Kochia",[6]; [12],80
same,"Plant response rating, Kochia",[6]; [13],100
same,"Plant response rating, Ryegrass, Italian",[7]; [10],20
same,"Plant response rating, Ryegrass, Italian",[7]; [11],80
same,"Plant response rating, Ryegrass, Italian",[7]; [12],0
same,"Plant response rating, Ryegrass, Italian",[7]; [13],20
same,"Plant response rating, Galium",[8]; [10],100
same,"Plant response rating, Galium",[8]; [11],100
same,"Plant response rating, Blackgrass",[9]; [10],70
same,"Plant response rating, Blackgrass",[9]; [11],90
"Fc1cccc(Oc2ncc(Cl)cn2)c1-c1cc(C(F)F)no1 [Compound 144, 5-chloro-2-[2-[3-(difluoromethyl)-5-isoxazolyl]-3-fluorophenoxy]pyrimidine]","Plant response rating, Waterhemp_RES2",[1]; 16 g ai/ha Postemergence,98
same,"Plant response rating, Waterhemp_RES2",[1]; 31 g ai/ha Postemergence,100
same,"Plant response rating, Waterhemp_RES2",[1]; 62 g ai/ha Postemergence,100
same,"Plant response rating, Waterhemp_RES2",[1]; 125 g ai/ha Postemergence,100
same,"Plant response rating, Waterhemp_RES1",[2]; 16 g ai/ha Postemergence,90
same,"Plant response rating, Waterhemp_RES1",[2]; 31 g ai/ha Postemergence,95
same,"Plant response rating, Waterhemp_RES1",[2]; 62 g ai/ha Postemergence,100
same,"Plant response rating, Waterhemp_RES1",[2]; 125 g ai/ha Postemergence,100
same,pest or weed control at 16 g/ha,[3]; [14],50%
same,pest or weed control at 31 g/ha,[3]; [15],50%
same,pest or weed control at 62 g/ha,[3]; [16],70%
same,pest or weed control at 125 g/ha,[3]; [17],65%
same,pest or weed control at 16 g/ha,[3]; [18],0%
same,pest or weed control at 31 g/ha,[3]; [19],0%
same,pest or weed control at 125 g/ha,[3]; [20],35%
same,pest or weed control at 62 g/ha,"[3]; pre-emergence, Preemergence",20%
same,pest or weed control at 16 g/ha,[4]; [14],40%
same,pest or weed control at 31 g/ha,[4]; [15],50%
same,pest or weed control at 62 g/ha,[4]; [16],40%
same,pest or weed control at 125 g/ha,[4]; [17],55%
same,pest or weed control at 16 g/ha,[4]; [18],75%
same,pest or weed control at 31 g/ha,[4]; [19],95%
same,pest or weed control at 62 g/ha,"[4]; pre-emergence, 62 g ai/ha Preemergence",98%
same,pest or weed control at 125 g/ha,[4]; [20],100%
same,"Plant response rating, Ragweed",[5]; [21],0
same,"Plant response rating, Ragweed",[5]; [10],60
same,"Plant response rating, Ragweed",[5]; [22],20
same,Ragweed plant response rating,[5]; [23],50
same,"Plant response rating, Kochia",[6]; [21],90
same,"Plant response rating, Kochia",[6]; [10],100
same,"Plant response rating, Kochia",[6]; [22],100
same,Kochia plant response rating,[6]; [23],100
same,"Plant response rating, Ryegrass, Italian",[7]; [21],0
same,"Plant response rating, Ryegrass, Italian",[7]; [10],100
same,"Plant response rating, Ryegrass, Italian",[7]; [22],20
same,"Ryegrass, Italian plant response rating",[7]; [23],90
same,"Plant response rating, Galium",[8]; [10],100
same,"Plant response rating, Galium",[8]; [22],100
same,"Plant response rating, Blackgrass",[9]; [10],90
same,"Plant response rating, Blackgrass",[9]; [22],80
